System: terminal cancer patients
Assay: Phase I/II open label dose escalation study, glucose levels, 3 hour continuous infusion
Type: in vivo, human
Method: Cyclocreatine was tested in humans in a phase I/II open label dose escalation study. […] Cyclocreatine was administered at doses that ranged from 10 mg/Kg to 100 mg/Kg. The schedule of administration of cyclocreatine is described in Table 4.
Cohorts of 3 patients were administered drug at each dose level, via a 3 hour continuous infusion in one liter volume of saline. The first week patients received cyclocreatine once, the second week patients received cyclocreatine twice, the third week three times, the fourth week four times, the fifth week five times. On weeks six and seven, no drug was administered to allow the drug to wash out. On week eight, cyclocreatine was given five times. The study included a total of 23 patients (18 male, 5 female) with a median age of 71 years (range 54-85). The patients had different types of malignancies. Eligibility requirements included patients who have failed standard therapy or for whom no therapy was available, normal organ function, have recovered from prior therapies, probability of survival of greater than three months. Reasons for exclusion included: major surgery, life threatening concurrent illness and CNS metastasis. Blood samples were collected at baseline and 1 day before and after the last weekly drug administration on days 1, 7, 9, 14, 17, 21, 25, 28, 33, 40, 47, 49, 54, 61, and 69. Glucose levels were determined for these collected blood samples. […] Not all patients experienced a significant drop in glucose although the trend was there. FIGS. 14 and 15 illustrate graphically individual patients' glucose levels upon treatment with 60 mg/Kg or 80 mg/Kg cyclocreatine. Patient (A) at the 80 mg/Kg dose was diabetic and had many serious complications due to their disease. […] It should be noted that an insufficient number of readings was made shortly after drug administration. It is interesting to note that several patients who were diabetic or had higher glucose levels than normal did respond to cyclocreatine, onen example being illustrated in FIG. 16.

## NC1=NCCN1CC(=O)O [cyclocreatine]
80 mg/Kg
  patients with significant hypoglycemia: 2 out of 3
100 mg/Kg
  patients with significant hypoglycemia: 2 out of 7
Ave, 40 mg/Kg, Study Day 0
  Glucose: 125 mg/dL
Ave, 40 mg/Kg, Study Day 1
  Glucose: 105 mg/dL
Ave, 40 mg/Kg, Study Day 7
  Glucose: 119 mg/dL
Ave, 40 mg/Kg, Study Day 9
  Glucose: 125 mg/dL
Ave, 40 mg/Kg, Study Day 14
  Glucose: 129 mg/dL
Ave, 40 mg/Kg, Study Day 17
  Glucose: 139 mg/dL
Ave, 40 mg/Kg, Study Day 21
  Glucose: 112 mg/dL
Ave, 40 mg/Kg, Study Day 25
  Glucose: 161 mg/dL
Ave, 40 mg/Kg, Study Day 28
  Glucose: 122 mg/dL
Ave, 40 mg/Kg, Study Day 33
  Glucose: 149 mg/dL
Ave, 40 mg/Kg, Study Day 40
  Glucose: 104 mg/dL
Ave, 40 mg/Kg, Study Day 47
  Glucose: 99 mg/dL
Ave, 40 mg/Kg, Study Day 49
  Glucose: 128 mg/dL
Ave, 40 mg/Kg, Study Day 54
  Glucose: 132 mg/dL
Ave, 40 mg/Kg, Study Day 61
  Glucose: 105 mg/dL
Ave, 40 mg/Kg, Study Day 69
  Glucose: 119 mg/dL
Ave, 60 mg/Kg, Study Day 7
  Glucose: 37 mg/dL
Patient 2, 7, 40 mg/Kg, Study Day 0
  Glucose: 115 mg/dL
Patient 2, 7, 40 mg/Kg, Study Day 1
  Glucose: 95 mg/dL
Patient 2, 7, 40 mg/Kg, Study Day 7
  Glucose: 153 mg/dL
Patient 2, 7, 40 mg/Kg, Study Day 9
  Glucose: 123 mg/dL
Patient 2, 7, 40 mg/Kg, Study Day 14
  Glucose: 102 mg/dL
Patient 2, 7, 40 mg/Kg, Study Day 17
  Glucose: 117 mg/dL
Patient 2, 7, 40 mg/Kg, Study Day 21
  Glucose: 104 mg/dL
Patient 2, 7, 40 mg/Kg, Study Day 25
  Glucose: 122 mg/dL
Patient 2, 7, 40 mg/Kg, Study Day 28
  Glucose: 154 mg/dL
Patient 2, 8, 40 mg/Kg, Study Day 0
  Glucose: 222 mg/dL
Patient 2, 8, 40 mg/Kg, Study Day 1
  Glucose: 116 mg/dL
Patient 2, 8, 40 mg/Kg, Study Day 9
  Glucose: 148 mg/dL
Patient 2, 8, 40 mg/Kg, Study Day 14
  Glucose: 184 mg/dL
Patient 2, 8, 40 mg/Kg, Study Day 17
  Glucose: 251 mg/dL
Patient 2, 8, 40 mg/Kg, Study Day 25
  Glucose: 278 mg/dL
Patient 2, 8, 40 mg/Kg, Study Day 33
  Glucose: 244 mg/dL
Patient 2, 8, 40 mg/Kg, Study Day 40
  Glucose: 139 mg/dL
Patient 2, 8, 40 mg/Kg, Study Day 49
  Glucose: 129 mg/dL
Patient 2, 8, 40 mg/Kg, Study Day 54
  Glucose: 195 mg/dL
Patient 2, 8, 40 mg/Kg, Study Day 69
  Glucose: 205 mg/dL
Patient 2, 9, 40 mg/Kg, Study Day 0
  Glucose: 98 mg/dL
Patient 2, 9, 40 mg/Kg, Study Day 1
  Glucose: 87 mg/dL
Patient 2, 9, 40 mg/Kg, Study Day 7
  Glucose: 117 mg/dL
Patient 2, 9, 40 mg/Kg, Study Day 9
  Glucose: 148 mg/dL
Patient 2, 9, 40 mg/Kg, Study Day 14
  Glucose: 126 mg/dL
Patient 2, 9, 40 mg/Kg, Study Day 17
  Glucose: 139 mg/dL
Patient 2, 9, 40 mg/Kg, Study Day 21
  Glucose: 90 mg/dL
Patient 2, 9, 40 mg/Kg, Study Day 25
  Glucose: 114 mg/dL
Patient 2, 9, 40 mg/Kg, Study Day 28
  Glucose: 87 mg/dL
Patient 2, 9, 40 mg/Kg, Study Day 33
  Glucose: 121 mg/dL
Patient 2, 9, 40 mg/Kg, Study Day 40
  Glucose: 92 mg/dL
Patient 2, 9, 40 mg/Kg, Study Day 47
  Glucose: 105 mg/dL
Patient 2, 9, 40 mg/Kg, Study Day 49
  Glucose: 132 mg/dL
Patient 2, 9, 40 mg/Kg, Study Day 54
  Glucose: 105 mg/dL
Patient 2, 9, 40 mg/Kg, Study Day 61
  Glucose: 104 mg/dL
Patient 2, 9, 40 mg/Kg, Study Day 69
  Glucose: 92 mg/dL
Patient 8, 40 mg/Kg, Study Day 0
  Glucose: 94 mg/dL
Patient 8, 40 mg/Kg, Study Day 1
  Glucose: 114 mg/dL
Patient 8, 40 mg/Kg, Study Day 7
  Glucose: 96 mg/dL
Patient 8, 40 mg/Kg, Study Day 9
  Glucose: 115 mg/dL
Patient 8, 40 mg/Kg, Study Day 14
  Glucose: 87 mg/dL
Patient 8, 40 mg/Kg, Study Day 17
  Glucose: 91 mg/dL
Patient 8, 40 mg/Kg, Study Day 21
  Glucose: 103 mg/dL
Patient 8, 40 mg/Kg, Study Day 25
  Glucose: 96 mg/dL
Patient 8, 40 mg/Kg, Study Day 28
  Glucose: 125 mg/dL
Patient 8, 40 mg/Kg, Study Day 33
  Glucose: 122 mg/dL
Patient 8, 40 mg/Kg, Study Day 40
  Glucose: 67 mg/dL
Patient 8, 40 mg/Kg, Study Day 47
  Glucose: 116 mg/dL
Patient 8, 40 mg/Kg, Study Day 49
  Glucose: 122 mg/dL
Patient 8, 40 mg/Kg, Study Day 54
  Glucose: 136 mg/dL
Patient 8, 40 mg/Kg, Study Day 61
  Glucose: 102 mg/dL
Patient 8, 40 mg/Kg, Study Day 69
  Glucose: 135 mg/dL
Patient 9, 40 mg/Kg, Study Day 0
  Glucose: 118 mg/dL
Patient 9, 40 mg/Kg, Study Day 1
  Glucose: 114 mg/dL
Patient 9, 40 mg/Kg, Study Day 7
  Glucose: 73 mg/dL
Patient 9, 40 mg/Kg, Study Day 9
  Glucose: 130 mg/dL
Patient 9, 40 mg/Kg, Study Day 14
  Glucose: 151 mg/dL
Patient 9, 40 mg/Kg, Study Day 17
  Glucose: 145 mg/dL
Patient 9, 40 mg/Kg, Study Day 21
  Glucose: 156 mg/dL
Patient 9, 40 mg/Kg, Study Day 25
  Glucose: 210 mg/dL
Patient 9, 40 mg/Kg, Study Day 28
  Glucose: 151 mg/dL
Patient 9, 40 mg/Kg, Study Day 33
  Glucose: 109 mg/dL
Patient 9, 40 mg/Kg, Study Day 40
  Glucose: 128 mg/dL
Patient 9, 40 mg/Kg, Study Day 47
  Glucose: 75 mg/dL
Patient 9, 40 mg/Kg, Study Day 54
  Glucose: 145 mg/dL
Patient 9, 40 mg/Kg, Study Day 61
  Glucose: 121 mg/dL
Patient 9, 40 mg/Kg, Study Day 69
  Glucose: 89 mg/dL
Patient 10, 40 mg/Kg, Study Day 0
  Glucose: 100 mg/dL
Patient 10, 40 mg/Kg, Study Day 7
  Glucose: 156 mg/dL
Patient 10, 40 mg/Kg, Study Day 9
  Glucose: 84 mg/dL
Patient 10, 40 mg/Kg, Study Day 14
  Glucose: 123 mg/dL
Patient 10, 40 mg/Kg, Study Day 17
  Glucose: 93 mg/dL
Patient 10, 40 mg/Kg, Study Day 21
  Glucose: 106 mg/dL
Patient 10, 40 mg/Kg, Study Day 25
  Glucose: 143 mg/dL
Patient 10, 40 mg/Kg, Study Day 28
  Glucose: 91 mg/dL
Patient 10, 40 mg/Kg, Study Day 40
  Glucose: 94 mg/dL
Patient 10, 40 mg/Kg, Study Day 47
  Glucose: 100 mg/dL
Patient 10, 40 mg/Kg, Study Day 54
  Glucose: 79 mg/dL
Patient 10, 40 mg/Kg, Study Day 61
  Glucose: 92 mg/dL
Patient 10, 40 mg/Kg, Study Day 69
  Glucose: 74 mg/dL
Patient 11, 60 mg/Kg, Study Day 7
  Glucose: 141 mg/dL
Patient 12, 60 mg/Kg, Study Day 7
  Glucose: 72 mg/dL
Patient 13, 60 mg/Kg, Study Day 7
  Glucose: 48 mg/dL
Patient (A), diabetic, 80 mg/Kg
  glucose response: did not seem to respond well
Highest tested drug concentrations (80 and 100 mg/Kg)
  clinical observation: became lethargic and hypoglycemic and required immediate intervention to revert glucose levels
Lower tested drug concentrations
  Glucose Levels: trend towards a drop in glucose levels shortly after drug administration
Several patients who were diabetic or had higher glucose levels than normal
  glucose response: did respond

Reference: patent US20050256134A1, “Use of creatine analogues and creatine kinase modulators for the prevention and treatment of glucose metabolic disorders” (AVICENA GROUP, INC., priority 1995, published 2005)
